As a reminder, the pIC50 is −log10 of the IC50, conventionally taken in molar units. Low values mean a large IC50, high ones a small IC50.

pIC50: −log10 of the molar value.

Sequence of Vascular endothelial growth factor receptor 2 (P35968 whole entry, the tested form may be a part): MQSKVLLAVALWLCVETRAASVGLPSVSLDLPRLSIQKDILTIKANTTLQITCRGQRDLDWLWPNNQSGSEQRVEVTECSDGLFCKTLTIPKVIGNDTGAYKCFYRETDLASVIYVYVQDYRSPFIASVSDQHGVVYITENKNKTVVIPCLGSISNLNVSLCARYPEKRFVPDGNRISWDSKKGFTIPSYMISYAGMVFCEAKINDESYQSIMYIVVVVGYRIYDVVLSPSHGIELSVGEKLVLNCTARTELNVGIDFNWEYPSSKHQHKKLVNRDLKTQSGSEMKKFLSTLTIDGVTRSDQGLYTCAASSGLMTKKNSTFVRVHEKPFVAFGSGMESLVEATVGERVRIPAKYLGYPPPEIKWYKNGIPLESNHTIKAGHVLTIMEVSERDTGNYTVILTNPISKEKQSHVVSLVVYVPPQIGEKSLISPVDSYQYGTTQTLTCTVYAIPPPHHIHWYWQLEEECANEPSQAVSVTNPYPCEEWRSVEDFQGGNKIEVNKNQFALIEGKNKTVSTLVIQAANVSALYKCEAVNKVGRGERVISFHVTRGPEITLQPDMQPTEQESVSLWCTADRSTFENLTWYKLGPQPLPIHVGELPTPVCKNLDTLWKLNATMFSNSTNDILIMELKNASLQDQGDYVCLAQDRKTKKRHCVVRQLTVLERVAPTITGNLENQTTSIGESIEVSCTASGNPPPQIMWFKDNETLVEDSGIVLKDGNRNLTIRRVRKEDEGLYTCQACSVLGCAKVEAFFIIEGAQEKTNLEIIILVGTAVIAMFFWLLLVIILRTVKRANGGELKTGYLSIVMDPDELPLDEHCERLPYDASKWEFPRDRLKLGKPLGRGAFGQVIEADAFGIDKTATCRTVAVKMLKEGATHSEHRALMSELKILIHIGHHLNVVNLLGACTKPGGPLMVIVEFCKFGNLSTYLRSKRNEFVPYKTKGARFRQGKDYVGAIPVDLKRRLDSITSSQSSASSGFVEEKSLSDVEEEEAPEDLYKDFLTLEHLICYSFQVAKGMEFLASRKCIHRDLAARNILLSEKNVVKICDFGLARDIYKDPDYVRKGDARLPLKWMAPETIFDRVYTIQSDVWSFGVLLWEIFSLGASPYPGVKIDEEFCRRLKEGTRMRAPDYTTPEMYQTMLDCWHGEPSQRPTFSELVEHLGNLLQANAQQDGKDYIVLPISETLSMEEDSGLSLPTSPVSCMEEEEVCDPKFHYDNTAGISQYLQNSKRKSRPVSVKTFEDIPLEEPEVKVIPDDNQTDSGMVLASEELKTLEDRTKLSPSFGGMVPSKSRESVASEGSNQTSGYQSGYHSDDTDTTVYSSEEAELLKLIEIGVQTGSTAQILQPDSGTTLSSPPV

This test concerns the target Vascular endothelial growth factor receptor 2 (Homo sapiens, UniProt P35968). Nature of the test: Homogeneous Time-resolved Fluorescence (HTRF) Assay. The source says: The assay was using baculovirus-expressed recombinant protein kinase purified as the intracellular domain fused by GST tag, interacting with biotinylated peptide substrate. HTRF is based on the proximity of europium cryptate (donor fluorophore)-labeled antiphosphotyrosine and streptavidin labeled with APC(allophycocyanin), which have been brought together by a binding reaction. When the two entities come into close proximity and upon excitation, energy transfer occurs and APC re-emits at 665 nm.
(In general: Time-resolved FRET reads energy transfer from a long-lived donor to a nearby acceptor.)
`CN(c1ccc(NC(=N)Nc2ccccc2)cc1)c1ccnc(Nc2cccc(CS(C)(=O)=O)c2)n1` [1-{4-[(2-{[3-(methanesulfonylmethyl)phenyl]amino}pyrimidin-4-yl)(methyl)amino]phenyl}benzeneguanidine] had a pIC50 of 6.49.

For the compound `CN(c1ccc(NC(=S)Nc2ccccc2)cc1)c1ccnc(Nc2cccc(CS(C)(=O)=O)c2)n1` [3-{4-[(2-{[3-(methanesulfonylmethyl)phenyl]amino}pyrimidin-4-yl)(methyl)amino]phenyl}-1-phenylthiourea], the negative-log IC50 (pIC50) was 6.93.

`CN(c1ccc(NC(=O)Cc2ccccc2)cc1)c1ccnc(Nc2cccc(CS(C)(=O)=O)c2)n1` [N-{4-[(2-{[3-(methanesulfonylmethyl)phenyl]amino}pyrimidin-4-yl)(methyl)amino]phenyl}-2-phenylacetamide] showed a pIC50 of 6.75.

The compound `CN(c1ccc(NC(=O)Nc2ccccc2)cc1)c1ccnc(Nc2cccc(S(N)(=O)=O)c2)n1` [3-{4-[methyl({2-[(3-sulfamoylphenyl)amino]pyrimidin-4-yl})amino]phenyl}-1-phenylurea] gave a negative logarithm of the IC50 (pIC50) of 8.30.

The compound `CN(c1ccc(NS(=O)(=O)Cc2ccccc2)cc1)c1ccnc(Nc2cccc(CS(C)(=O)=O)c2)n1` [N-{4-[(2-{[3-(methanesulfonylmethyl)phenyl]amino}pyrimidin-4-yl)(methyl)amino]phenyl}-1-phenylmethanesulfonamide] gave a negative-log IC50 (pIC50) of 6.57.

`CN(c1ccc(NC(=O)Oc2ccccc2)cc1)c1ccnc(Nc2cccc(CS(C)(=O)=O)c2)n1` [phenyl N-{4-[(2-{[3-(methanesulfonylmethyl)phenyl]amino}pyrimidin-4-yl)(methyl)amino]phenyl}carbamate] showed a pIC50 of 7.02.

The compound `CN(c1ccc(NC(=O)Nc2ccccc2)cc1)c1ccnc(Nc2cccc(CS(C)(=O)=O)c2)n1` [3-{4-[(2-{[3-(methanesulfonylmethyl)phenyl]amino}pyrimidin-4-yl)(methyl)amino]phenyl}-1-phenylurea] gave a negative-log IC50 (pIC50) of 7.74. Against the preceding compound, the pIC50 is 0.72 log units higher.

The values are drawn from BindingDB's records for doi:10.1016/j.bmcl.2005.03.034 (Glaxosmithkline, 2005).
